Marks after values point to notes of the source that are not given here.
Columns and labels:
[1] = target: T1, OCT3 (SLC22A3) (Homo sapiens, UniProt O75751); assay: Cellular uptake into OCT3-overexpressing HEK293 cells vs EV control cells (HPLC-MS/MS); settings: for uptake ratio OCT3 (transporter-overexpressing cells over EV control cells): mean (±SD, N): 2 min, HEK293; for substrate activity at OCT3 (in words): uptake ratio ≥2 = notable transport
T1 sequence (O75751 1-556): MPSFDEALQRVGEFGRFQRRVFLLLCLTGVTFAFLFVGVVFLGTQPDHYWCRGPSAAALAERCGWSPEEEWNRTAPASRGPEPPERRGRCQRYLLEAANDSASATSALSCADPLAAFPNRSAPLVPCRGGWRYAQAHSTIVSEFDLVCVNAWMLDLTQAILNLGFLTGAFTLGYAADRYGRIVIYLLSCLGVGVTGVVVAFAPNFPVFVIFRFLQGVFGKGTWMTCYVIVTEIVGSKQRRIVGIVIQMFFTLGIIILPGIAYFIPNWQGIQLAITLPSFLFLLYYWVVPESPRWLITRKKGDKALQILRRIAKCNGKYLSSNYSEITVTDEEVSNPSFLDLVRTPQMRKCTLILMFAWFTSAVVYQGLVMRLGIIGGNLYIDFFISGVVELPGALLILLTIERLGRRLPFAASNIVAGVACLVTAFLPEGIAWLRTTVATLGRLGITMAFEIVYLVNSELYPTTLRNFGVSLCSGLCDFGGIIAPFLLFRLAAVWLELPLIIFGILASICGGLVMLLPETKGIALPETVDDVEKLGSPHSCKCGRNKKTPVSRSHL

[2] = target: T2, OCT1 (SLC22A1) (Homo sapiens, UniProt O15245); assay: Cellular uptake into OCT1-overexpressing HEK293 cells vs EV control cells (HPLC-MS/MS); settings: for uptake ratio OCT1 (transporter-overexpressing cells over EV control cells): mean (±SD, N): 2 min, HEK293; for K m (±SEM) / v max (±SEM): OCT1, net uptake, Michaelis–Menten; for substrate activity at OCT1 (in words): uptake ratio ≥2 = notable transport
T2 sequence (O15245 1-554): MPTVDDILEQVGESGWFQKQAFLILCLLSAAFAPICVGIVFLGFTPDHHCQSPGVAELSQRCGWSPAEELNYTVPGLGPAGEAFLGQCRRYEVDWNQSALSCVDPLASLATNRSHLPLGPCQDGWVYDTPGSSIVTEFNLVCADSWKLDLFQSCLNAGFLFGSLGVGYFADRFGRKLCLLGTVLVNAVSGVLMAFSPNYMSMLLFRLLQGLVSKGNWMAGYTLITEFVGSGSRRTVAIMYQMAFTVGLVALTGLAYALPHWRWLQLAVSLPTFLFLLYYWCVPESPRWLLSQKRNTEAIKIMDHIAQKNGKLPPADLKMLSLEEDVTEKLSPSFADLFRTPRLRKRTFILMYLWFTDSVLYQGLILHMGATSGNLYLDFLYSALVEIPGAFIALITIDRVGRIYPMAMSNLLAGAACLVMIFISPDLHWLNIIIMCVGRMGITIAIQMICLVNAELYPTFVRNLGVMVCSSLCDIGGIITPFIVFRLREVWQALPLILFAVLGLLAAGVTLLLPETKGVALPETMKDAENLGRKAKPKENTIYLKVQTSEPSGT

[3] = target: MATE2-K (SLC47A2) (Homo sapiens, UniProt Q86VL8); assay: Cellular uptake into MATE2-K-overexpressing HEK293 cells vs EV control cells (HPLC-MS/MS); settings: for uptake ratio MATE2K (transporter-overexpressing cells over EV control cells): mean (±SD, N): 2.5 μM substrate, 1 min, 30 mM NH4Cl preincubation, HEK293
[4] = target: T3, MATE1 (SLC47A1) (Homo sapiens, UniProt Q96FL8); assay: Cellular uptake into MATE1-overexpressing HEK293 cells vs EV control cells (HPLC-MS/MS); settings: for uptake ratio MATE1 (transporter-overexpressing cells over EV control cells): mean (±SD, N): 2.5 μM substrate, 1 min, 30 mM NH4Cl preincubation, HEK293; for K m (±SEM) / v max (±SEM): MATE1, net uptake, Michaelis–Menten; for substrate activity at MATE1 (in words): uptake ratio ≥2 = notable transport
T3 sequence (Q96FL8 1-570): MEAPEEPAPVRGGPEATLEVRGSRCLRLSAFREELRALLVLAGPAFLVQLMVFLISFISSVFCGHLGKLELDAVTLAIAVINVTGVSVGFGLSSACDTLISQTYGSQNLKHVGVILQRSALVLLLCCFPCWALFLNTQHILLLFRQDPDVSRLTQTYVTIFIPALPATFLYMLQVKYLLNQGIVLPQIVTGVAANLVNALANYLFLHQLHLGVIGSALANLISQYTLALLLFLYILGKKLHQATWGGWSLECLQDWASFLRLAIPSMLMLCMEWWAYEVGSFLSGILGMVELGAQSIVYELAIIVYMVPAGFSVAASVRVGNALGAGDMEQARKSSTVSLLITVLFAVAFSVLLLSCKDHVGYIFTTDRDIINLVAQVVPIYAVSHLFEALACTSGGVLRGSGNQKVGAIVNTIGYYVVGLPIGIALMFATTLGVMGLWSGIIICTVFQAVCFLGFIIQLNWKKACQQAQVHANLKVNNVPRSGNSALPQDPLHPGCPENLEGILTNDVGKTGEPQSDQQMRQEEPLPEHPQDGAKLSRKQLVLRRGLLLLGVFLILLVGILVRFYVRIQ

[5] = target: T4, OCT2 (SLC22A2) (Homo sapiens, UniProt O15244); assay: Cellular uptake into OCT2-overexpressing HEK293 cells vs EV control cells (HPLC-MS/MS); settings: for uptake ratio OCT2 (transporter-overexpressing cells over EV control cells): mean (±SD, N): 2 min, HEK293; for K m (±SEM) / v max (±SEM): OCT2, net uptake, Michaelis–Menten; for substrate activity at OCT2 (in words): uptake ratio ≥2 = notable transport
T4 sequence (O15244 1-555): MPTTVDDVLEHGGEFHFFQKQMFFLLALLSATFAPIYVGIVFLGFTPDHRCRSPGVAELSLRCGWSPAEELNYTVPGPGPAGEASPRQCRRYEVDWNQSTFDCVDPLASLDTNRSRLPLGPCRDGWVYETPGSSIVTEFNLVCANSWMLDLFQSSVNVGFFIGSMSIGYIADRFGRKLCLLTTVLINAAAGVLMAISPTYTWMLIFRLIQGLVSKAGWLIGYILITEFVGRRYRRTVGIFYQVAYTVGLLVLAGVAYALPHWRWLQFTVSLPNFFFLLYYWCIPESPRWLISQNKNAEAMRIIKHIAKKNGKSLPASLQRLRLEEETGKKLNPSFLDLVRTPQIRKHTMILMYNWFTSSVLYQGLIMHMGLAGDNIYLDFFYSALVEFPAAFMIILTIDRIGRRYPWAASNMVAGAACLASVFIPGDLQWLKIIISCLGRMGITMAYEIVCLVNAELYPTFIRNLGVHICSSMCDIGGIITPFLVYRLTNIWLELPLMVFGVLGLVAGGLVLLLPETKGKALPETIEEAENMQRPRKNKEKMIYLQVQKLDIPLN

[6] = target: T4, OCT2 (SLC22A2); assay: in vitro; settings: pH 7.4
[7] = OCT3, net uptake, Michaelis–Menten

Sequence of MATE2-K (SLC47A2) (Q86VL8 1-566 isoform Q86VL8-3): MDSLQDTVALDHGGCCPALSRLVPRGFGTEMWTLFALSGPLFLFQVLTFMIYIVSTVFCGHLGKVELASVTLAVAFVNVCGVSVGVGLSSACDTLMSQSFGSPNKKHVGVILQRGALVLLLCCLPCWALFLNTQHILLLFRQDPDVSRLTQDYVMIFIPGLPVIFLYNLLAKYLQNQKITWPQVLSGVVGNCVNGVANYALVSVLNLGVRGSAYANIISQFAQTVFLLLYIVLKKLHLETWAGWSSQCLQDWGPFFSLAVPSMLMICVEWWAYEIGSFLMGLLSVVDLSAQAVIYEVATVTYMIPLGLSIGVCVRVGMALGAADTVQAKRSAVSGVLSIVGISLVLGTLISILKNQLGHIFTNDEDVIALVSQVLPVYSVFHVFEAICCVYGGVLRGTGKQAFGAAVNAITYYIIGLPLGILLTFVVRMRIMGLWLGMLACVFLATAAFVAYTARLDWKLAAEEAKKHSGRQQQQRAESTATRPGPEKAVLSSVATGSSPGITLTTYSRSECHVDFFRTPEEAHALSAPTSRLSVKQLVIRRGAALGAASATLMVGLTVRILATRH

| Structure (SMILES) | uptake ratio MATE2K (transporter-overexpressing cells over EV control cells): mean (±SD, N) [3] | uptake ratio MATE1 (transporter-overexpressing cells over EV control cells): mean (±SD, N) [4] | K m (±SEM) [5] | v max (±SEM) [5] | uptake ratio OCT3 (transporter-overexpressing cells over EV control cells): mean (±SD, N) ([1]; 10 μM substrate) | uptake ratio OCT1 (transporter-overexpressing cells over EV control cells): mean (±SD, N) ([2]; 10 μM substrate) | uptake ratio OCT2 (transporter-overexpressing cells over EV control cells): mean (±SD, N) ([5]; 10 μM substrate) | further results |
| --- | --- | --- | --- | --- | --- | --- | --- | --- |
| CC(N)CCCC(C)(C)O (stereo not shown) [heptaminol] | 1.0 (0.2, 3) | 6.6 (1.3, 3) ^a | 1089 (±213) μM | 9730 (±1210) pmol/mg protein/min | – | – | – | uptake ratio OCT3 (transporter-overexpressing cells over EV control cells): mean (±SD, N) ([1]; 2.5 μM substrate (§)): 1.1 (0.29, 4); uptake ratio OCT1 (transporter-overexpressing cells over EV control cells): mean (±SD, N) ([2]; 2.5 μM substrate (§)): 11.3 (4.6, 3); K m (±SEM) [2]: 241 (±68) μM; v max (±SEM) [2]: 1480 (±174) pmol/mg protein/min; K m (±SEM) [4]: 154 (±18) μM; v max (±SEM) [4]: 8061 (±283) pmol/mg protein/min; CLint of MATE1 higher than that of OCT1 ([4]; MATE1 vs OCT1): 6.0 fold; CLint of MATE1 higher than that of OCT2 ([4]; MATE1 vs OCT2): 3.7 fold; uptake ratio OCT2 (transporter-overexpressing cells over EV control cells): mean (±SD, N) ([5]; 2.5 μM substrate (§)): 8.7 (5.0, 3) |
| NCCO [ethanolamine^13C2, ethanolamine-^13C2] | 1.2 (0.4, 4) | 1.2 (0.4, 4) | – | – | 1.4 (0.5, 4) | 0.6 (0.3, 4) | 0.4 (0.2, 4) ^b | lower uptake in OCT1-transfected cells compared to EV control cells ([2]; 10 μM): 38%; uptake in OCT1-overexpressing cells as part of the uptake observed in EV control cells ([2]; discussion): approximately one-third; less uptake in OCT2-transfected cells compared to EV control cells ([5]; 10 μM, p = 0.009): 64%; uptake in OCT2-overexpressing cells as part of the uptake observed in EV control cells ([5]; discussion): two-thirds |
| CC(C)C[C@H](N)CO [(S)-(+)-leucinol] | – | – | – | – | – | – | – | selectivity ratio at 2 min [6]: 1.2 |
| CC[C@H](C)[C@H](N)CO [(S)-(+)-isoleucinol] | 1.0 (0.1, 3) | 1.1 (0.2, 3) | 116 (±59) μM | 1303 (±287) pmol/mg protein/min | – | – | – | uptake ratio OCT3 (transporter-overexpressing cells over EV control cells): mean (±SD, N) ([1]; 2.5 μM substrate (§)): 0.9 (0.1, 4); uptake ratio OCT1 (transporter-overexpressing cells over EV control cells): mean (±SD, N) ([2]; 2.5 μM substrate (§)): 1.0 (0.1, 4); uptake ratio OCT2 (transporter-overexpressing cells over EV control cells): mean (±SD, N) ([5]; 2.5 μM substrate (§)): 7.6 (1.5, 4) ^b; K m (±SEM) ([5]; listed as isoleucinol): 116 µM |
| NCCCCCO [5-amino-1-pentanol] | 1.2 (0.6, 5) | – | 1260 (±452) μM | 14,996 (±2181) pmol/mg protein/min | – | – | – | K m (±SEM) [1, 7]: 5776 (±2458) μM; v max (±SEM) [1, 7]: 5271 (±1641) pmol/mg protein/min; substrate activity at OCT3 (in words) [1]: notable transport; K m (±SEM) [2]: 132 (±121) μM; v max (±SEM) [2]: 135 (±37) pmol/mg protein/min; substrate activity at OCT1 (in words) [2]: notable transport; K m (±SEM) [4]: 1040 (±451) μM; v max (±SEM) [4]: 10,761 (±2694) pmol/mg protein/min; substrate activity at MATE1 (in words) [4]: notable transport; substrate activity at OCT2 (in words) [5]: notable transport |
| CCCC[C@H](N)CO [(S)-(+)-2-amino-1-hexanol] | – | – | 39 (±12) μM | 786 (±72) ^b pmol/mg protein/min | – | – | – | stereoselectivity OCT3 (uptake ratio of the more strongly transported enantiomer divided by that of the other) ([1]; label = favoured enantiomer): 1.3-fold for (S); selectivity ratio at 2 min [6]: 1.3 |
| CCCCCN [amylamine] | 0.8 (0.3, 3) | 0.5 (0.2, 3) ^a | – | – | 0.9 (0.3, 4) | 1.2 (0.5, 4) | 6.7 (3.2, 4) ^a | – |

More lines, main results first:

| uptake ratio MATE2K (transporter-overexpressing cells over EV control cells): mean (±SD, N) [3] | uptake ratio MATE1 (transporter-overexpressing cells over EV control cells): mean (±SD, N) [4] | K m (±SEM) [5] | v max (±SEM) [5] | uptake ratio OCT3 (transporter-overexpressing cells over EV control cells): mean (±SD, N) ([1]; 10 μM substrate) | uptake ratio OCT1 (transporter-overexpressing cells over EV control cells): mean (±SD, N) ([2]; 10 μM substrate) | uptake ratio OCT2 (transporter-overexpressing cells over EV control cells): mean (±SD, N) ([5]; 10 μM substrate) | Structure (SMILES) | further results |
| --- | --- | --- | --- | --- | --- | --- | --- | --- |
| 1.2 (0.6, 5) | 0.8 (0.2, 4) | – | – | 0.6 (0.2, 4) ^a | 1.8 (1.4, 5) | 1.6 (0.4, 4) | CCCCCCN [hexylamine] | – |
| - ^d | - ^d | – | – | - ^d | - ^d | - ^d | CC(N)CN(CC(C)N)CC(C)N (stereo not shown) [tris(2-aminopropyl)amine] | substrate activity at OCT3 (in words) [1]: did not show any substrate activity; substrate activity at OCT1 (in words) [2]: did not show any substrate activity; substrate activity at MATE2-K (in words) ([3]; uptake ratio ≥2 = notable transport): did not show any substrate activity; substrate activity at MATE1 (in words) [4]: did not show any substrate activity; substrate activity at OCT2 (in words) [5]: did not show any substrate activity |
| 1.1 (0.2, 3) | 0.8 (0.2, 3) | – | 1053 (±206) pmol/mg protein/min | 0.8 (0.3, 4) | 1.2 (0.1, 4) | 5.0 (1.3, 4) ^b | CCN(CC)CC [triethylamine] | – |
| 1.2 (0.3, 4) | 0.9 (0.2, 4) | – | – | 0.7 (0.2, 4) ^a | 1.1 (0.2, 4) | 3.4 (1.2, 4) ^a | CC(C)CN [isobutylamine] | – |

— publication PMC12340637, “Transport of Small Aliphatic Amines by Polyspecific Solute Carriers: Deciphering Structure–Function Relationships” (ACS Pharmacology & Translational Science, 2025)
